This note sets out measurements from patent US11464802B2, “3-substituted piperidine compounds for Cbl-b inhibition, and use thereof” (Nurix Therapeutics, Inc., priority 2019, dated 2022).

For one experiment, the target named is Cbl-b (Homo sapiens (Human), UniProt Q13191). The experiment can be described thus: Cbl-b displacement assay (Cbl-b inhibition assay), TR-FRET probe displacement, Biological Example 1. The class given is binding. The method, then:
Candidate compounds were evaluated for their ability to bind and inhibit Cbl-b, an E3 ubiquitin-protein ligase, as evidenced by their ability to displace a fluorophore-labeled probe (Example 46) bound to Cbl-b.
The ability of candidate compounds to displace a known inhibitor and thereby inhibit Cbl-b activity was measured by monitoring the interaction of Cbl-b with a fluorophore-labeled probe in the presence of the candidate compound. A truncated variant of Cbl-b (UniProt number Q13191; SEQ ID NO:1) containing an Avitag at its N-terminus was co-expressed with BirA biotin ligase and purified using a standard protocol (see Dou et al., Nature Structural and Molecular Biology 8: 982-987, 2013; Avidity LLC).
Fluorescently-labeled inhibitor probe was synthesized and tagged with BODIPY FL (Example 46). Cbl-b displacement assays were performed in a 384-well plate at room temperature in a 10 μL reaction volume by pre-incubating 0.5 nM Cbl-b or 0.125 nM Cbl-b (final concentration, indicated as “High” and “Low”, respectively) in an assay buffer containing 20 mM HEPES pH 7.5, 150 mM NaCl, 0.01% Triton X-100, 0.01% BSA, and 0.5 mM TCEP in the presence of a candidate compound in 1% DMSO (final concentration) for 1 hour. After incubation in the presence of the candidate compound, the plate was incubated for an additional 1 hour in the presence of an approximate EC40 binding saturation consisting of 150 nM fluorescently-labeled inhibitor probe and 2 nM Streptavidin-Terbium (Cisbio) (final concentrations). Following the 1 hour incubation, the plates were read for TR-FRET signal at 520/620 nM using an Envision plate reader (Perkin Elmer).

Experiment [1] has as its system primary human total T-cells. The experiment can be described thus: Primary human total T-cell activation: IL-2 secretion, Biological Example 2. Particulars: 48 hours, fold change over baseline; for fold induction at 0.3 µM: inhibitor 0.3 μM; for fold induction at 1 µM: inhibitor 1 μM; for fold induction at 3 µM: inhibitor 3 μM. The class given is cell-based.
Experiment [2] has as its system primary human total T-cells. Nature of the experiment: Primary human total T-cell activation: CD25 surface staining, Biological Example 2. The class given is cell-based. To be noted: 48 hours, fold change over baseline; for fold induction at 0.3 µM: inhibitor 0.3 μM; for fold induction at 1 µM: inhibitor 1 μM; for fold induction at 3 µM: inhibitor 3 μM.
The mark [3] stands for this setting: 0.5 nM Cbl-b final concentration (High), read-out: Cbl-b activity IC50 (High).
Where [4] appears, read: anti-CD3/anti-CD28 co-stimulation.
Setting [5] is: anti-CD3/anti-CD28 co-stimulation, read-out: IL-2 secretion CD3/CD28 1 μM.
Setting [6] is: anti-CD3 alone, read-out: IL-2 secretion CD3 1 μM.
The mark [7] stands for this setting: anti-CD3/anti-CD28 co-stimulation, read-out: CD25 staining CD3/CD28 1 μM.
Where [8] appears, read: anti-CD3 alone, read-out: CD25 staining CD3 1 μM.
[9] abbreviates: 0.125 nM Cbl-b final concentration (Low), read-out: Cbl-b activity IC50 (Low).
Where [10] appears, read: Cbl-b concentration (High or Low) not given, read-out: IC50 values in the Cbl-b inhibition assay of Biological Example 1.

Each structure is given as a SMILES string. Where two headings read alike, the source gives them in different places. Where only a bound is given, the exact number is not on record here.

Chain of Cbl-b (Q13191 36-427): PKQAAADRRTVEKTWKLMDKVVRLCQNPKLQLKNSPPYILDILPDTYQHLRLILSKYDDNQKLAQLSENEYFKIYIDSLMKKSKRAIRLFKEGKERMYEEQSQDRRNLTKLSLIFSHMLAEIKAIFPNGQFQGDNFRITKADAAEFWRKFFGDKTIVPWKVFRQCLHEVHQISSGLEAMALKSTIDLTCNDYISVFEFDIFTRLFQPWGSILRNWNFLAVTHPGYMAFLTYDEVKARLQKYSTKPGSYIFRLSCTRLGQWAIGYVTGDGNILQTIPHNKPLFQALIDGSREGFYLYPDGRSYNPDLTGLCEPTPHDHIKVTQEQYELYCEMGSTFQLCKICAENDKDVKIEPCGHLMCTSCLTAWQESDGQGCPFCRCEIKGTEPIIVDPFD

In the case of `C[C@@H]1CN(Cc2cc3c(c(C(F)(F)F)c2)CN(c2cccc(C4(Cc5nncn5C)COC4)c2)C3=O)C[C@H](C)C1(F)F` [Compound 17, 6-(((cis)-4,4-difluoro-3,5-dimethylpiperidin-1-yl)methyl)-2-(3-(3-((4-methyl-4H-1,2,4-triazol-3-yl)methyl)oxetan-3-yl)phenyl)-4-(trifluoromethyl)isoindolin-1-one], the concentration for half-maximal inhibition (IC50) on Cbl-b (setting [3]) lay in the range of 1 to 5 nM. The figures for the fold induction at 0.3 µM in experiment [1] (setting [4]) and in experiment [2] (setting [4]) were 11 to 15 and more than 1.39, respectively. Besides, the fold induction at 1 µM in experiment [1] (setting [5]) was more than 15; in experiment [1] (setting [6]) it was more than 0.66; in experiment [2] (setting [7]), 1.25 to 1.39; in experiment [2] (setting [8]), more than 1.14. Further, the fold induction at 3 µM was more than 0.66 in experiment [1] (anti-CD3 alone) and more than 1.14 in experiment [2] (anti-CD3 alone).

`Cn1cnnc1CC1(c2cccc(N3Cc4c(cc(CN5CCC[C@H](C#N)C5)cc4C(F)(F)F)C3=O)c2)COC1` [Compound 18, (S)-1-((2-(3-(3-((4-methyl-4H-1,2,4-triazol-3-yl)methyl)oxetan-3-yl)phenyl)-3-oxo-7-(trifluoromethyl)isoindolin-5-yl)methyl)piperidine-3-carbonitrile]: the IC50 on Cbl-b (setting [9]) fell in the range of 1 to 5 nM. Also, the results for the fold induction at 0.3 µM in experiment [1] (setting [4]) and in experiment [2] (setting [4]) were less than 10 and 1.25 to 1.39, respectively. The fold induction at 1 µM was 11 to 15 in experiment [1] (setting [5]), less than 0.33 in experiment [1] (setting [6]), 1.25 to 1.39 in experiment [2] (setting [7]) and more than 1.14 in experiment [2] (setting [8]). Moreover, the fold induction at 3 µM in experiment [1] (anti-CD3 alone) was 0.34 to 0.66; in experiment [2] (anti-CD3 alone), more than 1.14.

Turning to `Cn1cnnc1CC1(c2cccc(N3Cc4c(cc(CN5CC(C(F)(F)F)C[C@H](C(F)(F)F)C5)cc4C(F)(F)F)C3=O)c2)COC1` (stereo partly drawn) [Compound 21, cis-6-{[3,5-bis(trifluoromethyl)piperidin-1-yl]methyl}-2-(3-{3-[(4-methyl-1,2,4-triazol-3-yl)methyl]oxetan-3-yl}phenyl)-4-(trifluoromethyl)-3H-isoindol-1-one], the half-inhibitory concentration (IC50) at Cbl-b (setting [9]) and on Cbl-b (setting [10]) was 5.1 to 100 nM throughout. Moreover, the fold induction at 0.3 µM in experiment [1] (setting [4]) was less than 10; in experiment [2] (setting [4]) it was 1.25 to 1.39. Moreover, the fold induction at 1 µM is less than 10 in experiment [1] (setting [5]), less than 0.33 in experiment [1] (setting [6]), 1.25 to 1.39 in experiment [2] (setting [7]) and less than 1.04 in experiment [2] (setting [8]). In addition, the fold induction at 3 µM was less than 0.33 in experiment [1] (anti-CD3 alone) and less than 1.04 in experiment [2] (anti-CD3 alone).

Consider `CCNc1cc(C2(Cc3nncn3C)COC2)cc(N2Cc3c(cc(CN4CCC(F)(F)[C@H](C)C4)cc3C(F)(F)F)C2=O)n1` [Compound 27, (R)-6-((4,4-difluoro-3-methylpiperidin-1-yl)methyl)-2-(6-(ethylamino)-4-(3-((4-methyl-4H-1,2,4-triazol-3-yl)methyl)oxetan-3-yl)pyridin-2-yl)-4-(trifluoromethyl)iso indolin-1-one], for which the half-inhibitory concentration (IC50) at Cbl-b (setting [3]) and at Cbl-b (setting [10]) was 5.1 to 100 nM each time. In addition, the fold induction at 0.3 µM was more than 15 in experiment [1] (setting [4]) and less than 1.24 in experiment [2] (setting [4]). Also, the fold induction at 1 µM is more than 15 in experiment [1] (setting [5]), more than 0.66 in experiment [1] (setting [6]), less than 1.24 in experiment [2] (setting [7]) and less than 1.04 in experiment [2] (setting [8]). The fold induction at 3 µM in experiment [1] (anti-CD3 alone) is more than 0.66; in experiment [2] (anti-CD3 alone) it was less than 1.04.

In the case of `C[C@@H]1CN(Cc2cc3c(c(C(F)(F)F)c2)CN(c2cc(C4(Cc5nncn5C)COC4)cc(NC4COC4)n2)C3=O)CCC1(F)F` [Compound 29, (R)-6-((4,4-difluoro-3-methylpiperidin-1-yl)methyl)-2-(4-(3-((4-methyl-4H-1,2,4-triazol-3-yl)methyl)oxetan-3-yl)-6-(oxetan-3-ylamino)pyridin-2-yl)-4-(trifluoromethyl)isoindolin-1-one], the half-inhibitory concentration (IC50) on Cbl-b (setting [3]) and at Cbl-b (setting [10]) was 5.1 to 100 nM throughout. For the same molecule, the fold induction at 0.3 µM was 11 to 15 in experiment [1] (setting [4]) and less than 1.24 in experiment [2] (setting [4]). For the same molecule, the fold induction at 1 µM in experiment [1] (setting [5]) is 11 to 15; in experiment [1] (setting [6]) it was 0.34 to 0.66; in experiment [2] (setting [7]), less than 1.24; in experiment [2] (setting [8]) it was less than 1.04. The figures for the fold induction at 3 µM in experiment [1] (anti-CD3 alone) and in experiment [2] (anti-CD3 alone) were 0.34 to 0.66 and less than 1.04, respectively.

On to `C[C@@H]1CN(Cc2cc3c(c(C(F)(F)F)c2)CN(c2cc(C4(Cc5nncn5C)COC4)cc(C4CC4)n2)C3=O)CCC1(F)F` [Compound 30, (R)-2-(6-cyclopropyl-4-(3-((4-methyl-4H-1,2,4-triazol-3-yl)methyl)oxetan-3-yl)pyridin-2-yl)-6-((4,4-difluoro-3-methylpiperidin-1-yl)methyl)-4-(trifluoromethyl)isoindolin-1-one], for which the half-maximal inhibitory concentration (IC50) on Cbl-b (setting [3]) and at Cbl-b (setting [10]) was 5.1 to 100 nM throughout. Also, the fold induction at 0.3 µM in experiment [1] (setting [4]) was more than 15; in experiment [2] (setting [4]), less than 1.24. Moreover, the fold induction at 1 µM in experiment [1] (setting [5]) is more than 15; in experiment [1] (setting [6]), 0.34 to 0.66; in experiment [2] (setting [7]), less than 1.24; in experiment [2] (setting [8]) it was less than 1.04. Further, the fold induction at 3 µM in experiment [1] (anti-CD3 alone) was 0.34 to 0.66; in experiment [2] (anti-CD3 alone), less than 1.04.

Regarding `C[C@@H]1CN(Cc2cc3c(c(C(F)(F)F)c2)CN(c2cccc(C4(Cc5nncn5C(F)F)COC4)c2)C3=O)CCC1(F)F` [Compound 31, (R)-6-((4,4-difluoro-3-methylpiperidin-1-yl)methyl)-2-(3-(3-((4-(difluoromethyl)-4H-1,2,4-triazol-3-yl)methyl)oxetan-3-yl)phenyl)-4-(trifluoromethyl)isoindolin-1-one], the IC50 at Cbl-b (setting [9]) and on Cbl-b (setting [10]) was 1 to 5 nM throughout. The fold induction at 0.3 µM in experiment [1] (setting [4]) was more than 15; in experiment [2] (setting [4]), more than 1.39. In addition, the fold induction at 1 µM is more than 15 in experiment [1] (setting [5]), more than 0.66 in experiment [1] (setting [6]), more than 1.39 in experiment [2] (setting [7]) and less than 1.04 in experiment [2] (setting [8]). Further, the fold induction at 3 µM in experiment [1] (anti-CD3 alone) is more than 0.66; in experiment [2] (anti-CD3 alone), less than 1.04.

On to `C[C@H]1CN(Cc2cc(C(=O)Nc3cccc(C4(Cc5nncn5C)COC4)c3)nc(C3CC3)c2)CCC1(F)F` [Compound 33, 6-cyclopropyl-4-{[(3S)-4,4-difluoro-3-methylpiperidin-1-yl]methyl}-N-(3-{3-[(4-methyl-1,2,4-triazol-3-yl)methyl]oxetan-3-yl}phenyl)pyridine-2-carboxamide], for which the IC50 at Cbl-b (setting [3]) lay within 1 to 5 nM. Further, the fold induction at 0.3 µM in experiment [1] (setting [4]) is 11 to 15; in experiment [2] (setting [4]) it was less than 1.24. For the same molecule, the fold induction at 1 µM was 11 to 15 in experiment [1] (setting [5]), less than 0.33 in experiment [1] (setting [6]), less than 1.24 in experiment [2] (setting [7]) and 1.05 to 1.14 in experiment [2] (setting [8]). Besides, the fold induction at 3 µM was in the range of 0.34 to 0.66 in experiment [1] (anti-CD3 alone) and 1.05 to 1.14 in experiment [2] (anti-CD3 alone).

`C[C@H]1CCCN(Cc2cc3c(c(C4CC4)n2)CN(c2cccc(C4(Cc5nncn5C)COC4)c2)C3=O)C1` [Compound 35, (S)-4-Cyclopropyl-2-(3-(3-((4-methyl-4H-1,2,4-triazol-3-yl)methyl)oxetan-3-yl)phenyl)-6-((3-methylpiperidin-1-yl)methyl)-2,3-dihydro-1H-pyrrolo[3,4-c]pyridin-1-one]: the concentration for half-maximal inhibition (IC50) at Cbl-b (setting [9]) fell in the range of 1 to 5 nM. Besides, the fold induction at 0.3 µM in experiment [1] (setting [4]) was 11 to 15; in experiment [2] (setting [4]) it was less than 1.24. The fold induction at 1 µM in experiment [1] (setting [5]) is more than 15; in experiment [1] (setting [6]), 0.34 to 0.66; in experiment [2] (setting [7]) it was 1.25 to 1.39; in experiment [2] (setting [8]), 1.05 to 1.14. In addition, the fold induction at 3 µM is more than 0.66 in experiment [1] (anti-CD3 alone) and more than 1.14 in experiment [2] (anti-CD3 alone).

`C[C@H]1CCCN(Cc2cc3c(c(C(F)(F)F)c2)CN(c2cccc(C4(Cc5nncn5C(F)F)COC4)c2)C3=O)C1` [Compound 36, 2-[3-(3-{[4-(difluoromethyl)-1,2,4-triazol-3-yl]methyl}oxetan-3-yl)phenyl]-6-{[(3S)-3-methylpiperidin-1-yl]methyl}-4-(trifluoromethyl)-3H-isoindol-1-one]: the IC50 at Cbl-b (setting [9]) and at Cbl-b (setting [10]) was less than 1 nM in each case. Besides, the fold induction at 0.3 µM in experiment [1] (setting [4]) is more than 15; in experiment [2] (setting [4]), more than 1.39. Also, the fold induction at 1 µM in experiment [1] (setting [5]) is more than 15; in experiment [1] (setting [6]) it was more than 0.66; in experiment [2] (setting [7]), more than 1.39; in experiment [2] (setting [8]), more than 1.14. Also, the fold induction at 3 µM is more than 0.66 in experiment [1] (anti-CD3 alone) and more than 1.14 in experiment [2] (anti-CD3 alone).
